# In patent publication US20250332105A1, “AMORPHOUS SOLID DISPERSION COMPRISING (S)-1-(1-ACRYLOYLPYRROLIDIN-3-YL)-3-((3,5-DIMETHOXYPHENYL)ETHYNYL)-5-(METHYLAMINO)-1H-PYRAZOLE-4-CARBOXAMIDE” (BEIJING INNOCARE PHARMA TECH CO., LTD., priority 2024, published 2025):
# Experiments:
# [1] = Glass transition temperature determination by DSC; format: physicochemical; conditions: 0 to 210° C. at 10° C./min
# Procedure: Type A: Accurately weighted Type A sample (2˜5 mg) was placed in a DSC pan which was then sealed and placed in TA Instruments Q2000. The pan was heated from room temperature to 230° C. at a rate of 20° C./min and after 5 min, rapidly cooled to 0° C. at a rate of 50° C./min. After another 5 min, the DSC analysis was carried out between 0 to 210° C. at a rate of 10° C./min.
# ASD: Accurately weighted ASD sample (2˜5 mg) was placed in a DSC pan which was then sealed and placed in TA Instruments Q2000. The pan was heated from room temperature to 135° C. at a rate of 20° C./min and after 5 minutes, rapidly cooled to 0° C. at a rate of 50° C./min. After another 5 min, the DSC analysis was carried out between 0 to 210° C. at a rate of 10° C./min (FIG. 2 and FIG. 3).
# [2] = Stability assessment of ASD (XRPD, DSC, solubility, relative substances after storage); format: physicochemical; conditions: no storage (drug substance)
# Text: Capped brown glass vials each containing an ASD sample (HPMCAS-10-SDD and PVPVA-10-HME) were placed inside stability chambers.
# [3] = Solubility profiles in pH 6.8 phosphate buffer; format: physicochemical; conditions: aqueous buffer, thermodynamic from solid, 37° C., 150 rpm, n = 3
# Procedure: Phosphate buffer (pH 6.8): 3.40 g of potassium dihydrogen phosphate and 0.45 g of sodium hydroxide were dissolved in 500 mL of water.
# Type A: About 8.0 mg of Type A sample was added to 20 mL of the phosphate buffer (pH 6.8) in a 30-mL glass vial. The vial was capped, placed in a shaker, and kept shaking with 150 rpm at 37° C. At indicated time intervals (10, 30, 60, 120, 240 min), a fraction of the suspension was removed and filtered through a 0.45-μm filter by discarding the first part of the filtrate. The filtrate was diluted and then analyzed by HPLC.
# ASD: An appropriate amount of ASD (about 3.0 mg of Compound I) was added to 7.5 mL of the phosphate buffer (pH 6.8) in a 30-mL glass vial. The vial was capped, placed in a shaker, and kept shaking with 150 rpm at 37° C. At indicated time intervals (10, 30, 60, 120, 240 min), a fraction of the suspension was removed and centrifuged at 12,000 rpm for 5 minutes to give a clear solution that was then analyzed by HPLC.
# [4] = Equilibrium solubility in water; format: physicochemical; conditions: after equilibrium in water at room temperature for 24 hours
# [5] = In vivo PK, oral administration in beagle dogs; conditions: dog, blood, fasted beagle dogs, 3 mg/kg, Type A as 0.5% MC suspension, HPMCAS-10-SDD as tablet
# Procedure: Type A and HPMCAS-10-SDD were formulated with excipients, respectively. The PK properties of two formulations administered orally in beagle dogs were evaluated. Each formulation was tested in three dogs, each weighed 8˜12 kg.
# A formulation was prepared by wet granulation. Firstly, mannitol, pregelatinized starch, sodium carboxymethyl starch and sodium dodecyl sulfate of different amounts were mixed evenly according to Table 8. Secondly, Type A and Povidone K30 were added into an appropriate amount of absolute alcohol, stirred, and mixed as adhesive. Finally, the adhesive was added to the evenly mixed excipients, followed by granulation, drying, addition of magnesium stearate, and mixing into a powder.
# The above formulation was added to 0.5% methylcellulose (MC) to give a suspension containing 0.6 mg/mL of Compound I. The suspension was then orally administered to fasted beagle dogs at 5 mL/kg, which was equivalent to a dose of 3 mg/kg. Blood samples were collected at 0.25, 0.5, 1, 2, 4, 8 and 24 hours post dose. Concentrations of Compound I were quantified by LC-MS/MS analysis using an API-4500 mass spectrometer.
# A formulation was prepared by dry granulation. […]
# Four tablets were orally administered to fasted beagle dogs at a dose of 3 mg/kg. […] Concentrations of Compound I were quantified by LC-MS/MS analysis.
compound,measurement,setting,value
"C=CC(=O)N1CC[C@H](n2nc(C#Cc3cc(OC)cc(OC)c3)c(C(N)=O)c2NC)C1 [Type A, (S)-1-(1-acryloylpyrrolidin-3-yl)-3-((3,5-dimethoxyphenyl)ethynyl)-5-(methylamino)-1H-pyrazole-4-carboxamide]",Tg,[1],70.1 °C
same,Total Impurities,[2],0.19%
same,solubility at 10 min,[3]; 10 min,4.88 µg/mL
same,solubility at 30 min,[3]; 30 min,7.91 µg/mL
same,solubility at 60 min,[3]; 60 min,7.81 µg/mL
same,solubility at 120 min,[3]; 120 min,7.62 µg/mL
same,solubility at 240 min,[3]; 240 min,8.47 µg/mL
same,solubility,[4],6.4 µg/mL
same,AUC(0-t),[5],1250 ng·h/mL
same,Cmax,[5],270 ng/mL
